Measurements taken from article PMC3140574 (Journal of immunology (Baltimore, Md. : 1950), 2011).
Where a SMILES comes first, the peptide text is derived from it.

Key:
[1] = system: splenocytes of ML1419c p113-121 immunized HLA-A2tg mice; type: cell-based
[2] = target: HLA-A*0201 (Homo sapiens, UniProt P04439, D140Y/D185E/D98H/E176V/E277Q/G131W/G231S/I119V/I121R/I166T/I218V/L300P/L318F/N151K/N90K/P208A/P217A/Q86G/Q94H/R138H/R169H/T345S); assay: HLA-A*0201-peptide binding

Row | Compound | IFN-γ [1] [pg/mL] | IL-6 [1] [pg/mL] | IP-10 [1] [pg/mL] | MIG [1] [pg/mL] | MIP-β [1] [pg/mL] | TNF-α [1] [pg/mL] | VEGF [1] [pg/mL] | IC50 [2] [µM]
1 | concanavalin A [conA] | 5112 | 299 | 251 | 533 | 787 | 33 | 83 | –
2 | CC(C)C[C@H](NC(=O)[C@@H](NC(=O)[C@@H](NC(=O)CNC(=O)[C@H](CC(=O)O)NC(=O)[C@H](CC(C)C)NC(=O)[C@@H](N)CCCNC(=N)N)[C@@H](C)O)[C@@H](C)O)C(=O)N[C@@H](CCC(=O)O)C(=O)N[C@H](C(=O)O)C(C)C [ML1419c p113-121, RLDGTTLEV] (H-RLDGTTLEV-OH) | – | – | – | – | – | – | – | 0.035
